Measured values taken from patent publication US20230227484A1, “PYRIMIDINE COMPOUND AS AXL INHIBITOR” (NANJING CHIA TAI TIANQING PHARMACEUTICAL CO., LTD., priority 2020, published 2023).

Each compound was assayed against T1, AXL kinase (Homo sapiens, UniProt P30530) (assay: Inhibitory activity of compound against AXL kinase (HTRF KinEASE)). Conditions: AXL enzyme (Carna, 08-107), ATP 15 μM; "<" means below detection limit of the test.
T1 construct: purchased Carna 08-107
T1 sequence (P30530 473-894 limits assumed): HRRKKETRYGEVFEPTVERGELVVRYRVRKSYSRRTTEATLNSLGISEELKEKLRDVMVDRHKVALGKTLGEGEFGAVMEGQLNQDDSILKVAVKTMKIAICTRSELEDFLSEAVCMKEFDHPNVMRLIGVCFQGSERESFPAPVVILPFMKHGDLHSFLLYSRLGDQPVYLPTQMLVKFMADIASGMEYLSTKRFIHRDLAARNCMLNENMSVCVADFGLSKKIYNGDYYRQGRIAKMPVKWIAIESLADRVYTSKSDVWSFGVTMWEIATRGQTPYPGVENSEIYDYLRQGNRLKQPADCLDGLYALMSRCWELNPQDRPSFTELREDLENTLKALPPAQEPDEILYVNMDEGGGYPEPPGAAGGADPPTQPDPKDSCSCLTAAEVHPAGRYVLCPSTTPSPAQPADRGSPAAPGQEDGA
Assay type: biochemical
Procedure: a) AXL enzyme (Carna, 08-107) configuration and addition: a 1×enzyme buffer (200 μL of Enzymatic buffer kinase 5×, 10 μL of 500 mM MgCl2, 10 μL of 100 mM DTT and 6.26 μL of 2500 nM SEB are added with […] of H2O, and prepared into 1 ml of 1× enzyme buffer) is used. AXL enzyme is diluted from 33.33 ng/uL to 0.027 ng/μL (1.67×, final conc.=0.016 ng/uL), a BioTek (MultiFlo FX) automatic liquid dispenser is used, and 6 μL of enzyme solution having a 1.67-fold final concentration is added respectively to compound wells and positive control wells; and 6 μL of 1×Enzymatic buffer is added to negative control wells.
b) Compound preparation and addition: the compounds and positive drugs prepared in the examples are diluted from 10 mM to 100 μM by DMSO, and titrated with a compound titrator (Tecan, D300e). The titrated solution is automatically sprayed by the titrator to each well to reach a required concentration, wherein the first concentration is 1 μM, and after ½ log dilution, a total of 8 concentrations are obtained. The resulting mixture is centrifuged at 2500 rpm for 30 s and incubated at room temperature for 15 min.
c) Preparation and addition of ATP and substrate: ATP (Sigma, A7699) is diluted with 1× enzyme buffer from 10 mM to 75 μM (5×), and the final concentration is 15 μM; the substrate TK Substrate 3-biotin (Cisbio, 61TK0BLC) is diluted with 1× enzyme buffer from 500 μM to 5 μM (5×), andthe final concentration is […]; ATP and the substrate are mixed in equal volume to obtain a mixed solution; the mixed solution is added to each well at 4 μL by using a BioTek automatic dispenser; centrifuged at 2500 rpm for 30 s, and reacted at 25° C. for 45 min.
d) Pirparation and addition of detection reagent: Streptavidin-XL665 (Cisbio, 610SAXLG) is diluted with HTRF KinEASE detection buffer (cisbio) from 16.67 μM to 250 nM (4×), and the final concentration is 62.5 nM; TK Antibody-Cryptate (Cisbio) is diluted with HTRF KinEASE detection buffer (cisbio) from 100× to 5×, and the final concentration is 1×; XL665 and Antibody are mixed in equal volume; the mixed solution is added to each well at 10 μL by using the BioTek automatic dispenser, centrifuged at 2500 rpm for 30 s, and reacted at 25° C. for 1 h. After the reaction is completed, the resulting product is detected by a multi-function plate reader HTR1p
GraphPad Prism 5 software log (inhibitor) vs. response-Variable slope is used to fit a dose-response curve to obtain the IC50 value of the compound to the inhibition of AXL kinase.
The calculation formula of the inhibition rate is as follows: […]

SMILES | IC50
[2H]C([2H])([2H])P(=O)(c1ccccc1Nc1nc(Nc2ccc3c(c2)CC[C@@H](N2CCCC2)CC3)ncc1Cl)C([2H])([2H])[2H] [Example 56, (S)-(2-((5-chloro-2-((7-(pyrrolidin-1-yl)-6,7,8,9-tetrahydro-5H-benzo[7]annulen-2-yl)amino)pyrimidin-4-yl)amino)phenyl)bis(methyl-d3) phosphine oxide] | 2.04 nM
[2H]C([2H])([2H])P(=O)(c1cc(F)ccc1Nc1nc(Nc2ccc3c(c2)CC[C@@H](N2CCCC2)CC3)ncc1Cl)C([2H])([2H])[2H] [Example 57, (S)-(2-((5-chloro-2-((7-(pyrrolidin-1-yl)-6,7,8,9-tetrahydro-5H-benzo[7]annulen-2-yl)amino)pyrimidin-4-yl)amino)-5-fluorophenyl)bis(methyl-d3) phosphine oxide] | 6.27 nM
CNC(=O)c1cc(P(C)(C)=O)ccc1Nc1nc(Nc2ccc3c(c2)CC[C@@H](N2CCCC2)CC3)ncc1Cl [Example 79, (S)-2-((5-chloro-2-((7-(pyrrolidin-1-yl)-6,7,8,9-tetrahydro-5H-benzo[7]annulen-2-yl)amino)pyrimidin-4-yl)amino)-5-(dimethylphosphoryl)-N-methylbenzamide] | 1.05 nM
CP(C)(=O)c1cc(C2CC2)ccc1Nc1nc(Nc2ccc3c(c2)CC[C@@H](N2CCCC2)CC3)ncc1Cl [Example 112, (S)-(2-((5-chloro-2-((7-(pyrrolidin-1-yl)-6,7,8,9-tetrahydro-5H-benzo[7]annulen-2-yl)amino)pyrimidin-4-yl)amino)-5-cyclopropylphenyl)dimethyl phosphine oxide] | 2.41 nM
CC(C)Oc1ccc(Nc2nc(Nc3ccc4c(c3)CC[C@@H](N3CCCC3)CC4)ncc2Cl)c(P(C)(C)=O)c1 [Example 114] | 2.03 nM
CP(C)(=O)c1cc(N2CC3(COC3)C2)ccc1Nc1nc(Nc2ccc3c(c2)CC[C@@H](N2CCCC2)CC3)ncc1Cl [Example 119, (S)-(2-((5-chloro-2-((7-(pyrrolidin-1-yl)-6,7,8,9-tetrahydro-5H-benzo[7]annulen-2-yl)amino)pyrimidin-4-yl)amino)-5-(2-oxa-6-azaspiro[3.3]heptan-6-yl)phenyl)dimethyl phosphine oxide] | 9.24 nM
CP(C)(=O)c1cc(OC2CC2)ccc1Nc1nc(Nc2ccc3c(c2)CC[C@@H](N2CCCC2)CC3)ncc1Cl [Example 128, (S)-(2-((5-chloro-2-((7-(pyrrolidin-1-yl)-6,7,8,9-tetrahydro-5H-benzo[7]annulen-2-yl)amino)pyrimidin-4-yl)amino)-5-cyclopropoxyphenyl)dimethyl phosphine oxide] | 1.82 nM
COc1cc(Nc2nc(Nc3ccc4c(c3)CC[C@@H](N3CCCC3)CC4)ncc2Cl)c(P(C)(C)=O)cc1F [Example 131, (S)-(2-((5-chloro-2-((7-(pyrrolidin-1-yl)-6,7,8,9-tetrahydro-5H-benzo[7]annulen-2-yl)amino)pyrimidin-4-yl)amino)-5-fluoro-4-methoxylphenyl)dimethyl phosphine oxide] | 207 nM
COc1cc(P(C)(C)=O)c(Nc2nc(Nc3ccc4c(c3)CC[C@@H](N3CCCC3)CC4)ncc2Cl)cc1C#N [Example 136, (S)-(2-((5-chloro-2-((7-(pyrrolidin-1-yl)-6,7,8,9-tetrahydro-5H-benzo[7]annulen-2-yl)amino)pyrimidin-4-yl)amino)-4-cyano-5-methoxyphenyl)dimethyl phosphine oxide] | 13.1 nM
COC(C)(C)c1ccc(Nc2nc(Nc3ccc4c(c3)CC[C@@H](N3CCCC3)CC4)ncc2Cl)c(P(C)(C)=O)c1 [Example 139, (S)-(2-((5-chloro-2-((7-(pyrrolidin-1-yl)-6,7,8,9-tetrahydro-5H-benzo[7]annulen-2-yl)amino)pyrimidin-4-yl)amino)-5-(2-methoxypropan-2-yl)phenyl)dimethyl phosphine oxide] | 2.53 nM
CP(C)(=O)c1cc(C2(C#N)CC2)ccc1Nc1nc(Nc2ccc3c(c2)CC[C@@H](N2CCCC2)CC3)ncc1Cl [Example 140, (S)-1-(4-((5-chloro-2-((7-(pyrrolidin-1-yl)-6,7,8,9-tetrahydro-5H-benzo[7]annulen-2-yl)amino)pyrimidin-4-yl)amino)-3-(dimethylphosphoryl)phenyl)cyclopropane-1-carbonitrile] | 2.91 nM

Now from value to compound:

IC50 | SMILES
3.14 nM | COc1ccc(Nc2nc(Nc3ccc4c(c3)CC[C@@H](N3CCCC3)CC4)ncc2Cl)c(P(C)(C)=O)c1 [Example 55, (S)-(2-((5-chloro-2-((7-(pyrrolidin-1-yl)-6,7,8,9-tetrahydro-5H-benzo[7]annulen-2-yl)amino)pyrimidin-4-yl)amino)-5-methoxyphenyl)dimethyl phosphine oxide]
1.7 nM | CP(C)(=O)c1cc(Br)ccc1Nc1nc(Nc2ccc3c(c2)CC[C@@H](N2CCCC2)CC3)ncc1Cl [Example 110, (S)-(5-bromo 2-((5-chloro-2-((7-(pyrrolidin-1-yl)-6,7,8,9-tetrahydro-5H-benzo[7]annulen-2-yl)amino)pyrimidin-4-yl)amino)phenyl)dimethyl phosphine oxide]
1.81 nM | [2H]c1ccc(Nc2nc(Nc3ccc4c(c3)CC[C@@H](N3CCCC3)CC4)ncc2Cl)c(P(C)(C)=O)c1 [Example 111, (S)-(2-((5-chloro-2-((7-(pyrrolidin-1-yl)-6,7,8,9-tetrahydro-5H-benzo[7]annulen-2-yl)amino)pyrimidin-4-yl)amino)phenyl-5-d)dimethyl phosphine oxide]
1.28 nM | Cc1cccc(Nc2nc(Nc3ccc4c(c3)CC[C@@H](N3CCCC3)CC4)ncc2Cl)c1P(C)(C)=O [Example 113, (S)-(2-((5-chloro-2-((7-(pyrrolidin-1-yl)-6,7,8,9-tetrahydro-5H-benzo[7]annulen-2-yl)amino)pyrimidin-4-yl)amino)-6-methylphenyl) dimethyl phosphine oxide]
1.78 nM | Cc1cc(Cl)cc(Nc2nc(Nc3ccc4c(c3)CC[C@@H](N3CCCC3)CC4)ncc2Cl)c1P(C)(C)=O [Example 117, (S)-(4-chloro-2-((5-chloro-2-((7-(pyrrolidin-1-yl)-6,7,8,9-tetrahydro-5H-benzoannulen-2-yl)amino)pyrimidin-4-yl)amino)-6-methylphenyl)dimethyl phosphine oxide]
9.68 nM | Cc1cc(Nc2nc(Nc3ccc4c(c3)CC[C@@H](N3CCCC3)CC4)ncc2Cl)c(P(C)(C)=O)cc1F [Example 129, (S)-(2-((5-chloro-2-((7-(pyrrolidin-1-yl)-6,7,8,9-tetrahydro-5H-benzo[7]annulen-2-yl)amino)pyrimidin-4-yl)amino)-5-fluoro-4-methylphenyl)dimethyl phosphine oxide]
12.3 nM | Cc1ccc(P(C)(C)=O)c(Nc2nc(Nc3ccc4c(c3)CC[C@@H](N3CCCC3)CC4)ncc2Cl)c1 [Example 130, (S)-(2-((5-chloro-2-((7-(pyrrolidin-1-yl)-6,7,8,9-tetrahydro-5H-benzo[7]annulen-2-yl)amino)pyrimidin-4-yl)amino)-4-methylphenyl)dimethyl phosphine oxide]
2.36 nM | CP(C)(=O)c1c(Nc2nc(Nc3ccc4c(c3)CC[C@@H](N3CCCC3)CC4)ncc2Cl)ccc(F)c1Cl [Example 132, (S)-(2-chloro-6-((5-chloro-2-((7-(pyrrolidin-1-yl)-6,7,8,9-tetrahydro-5H-benzo [7]annulen-2-yl)amino)pyrimidin-4-yl)amino)-3-fluorophenyl)dimethyl phosphine oxide]
